Data as given in US10499642B2, “Isoxazoline-substituted benzamides and analogues as insecticides” (SYNGENTA PARTICIPATIONS AG, priority 2015, dated 2019).

Experiments:
Type in all cases: in vivo
Thrips tabaci = Thrips tabaci (onion thrips) sunflower leaf disc test; details: foliar, 144 h
Procedure: Thrips tabaci (Onion Thrips):
(§1) Sunflower leaf discs were placed on agar in 24-well microtiter plates and sprayed with aqueous test solutions prepared from 10′000 ppm DMSO stock solutions. After drying the leaf discs were infested with a thrips population of mixed ages. The samples were assessed for mortality 6 days after infestation.

Spodoptera littoralis = Spodoptera littoralis (Egyptian cotton leaf worm) cotton leaf disc test; details: foliar, 72 h, read-out: control (at least one of mortality, anti-feedant effect, and growth inhibition)
How it was run: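 Cotton leaf discs on agar were sprayed with aqueous dilutions of 10′000 ppm DMSO stocks, dried and infested with five L1 larvae. Mortality, anti-feedant effect and growth inhibition were scored against untreated samples 3 days after infestation. Control = any of these higher than untreated.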

Myzus persicae = Myzus persicae (green peach aphid) sunflower leaf disc test; details: foliar, 144 h
Procedure: Myzus persicae (Green Peach Aphid):
Sunflower leaf discs were placed on agar in a 24-well microtiter plate and sprayed with test solutions at an application rate of 200 ppm. After drying, the leaf discs were infested with an aphid population of mixed ages. After an incubation period of 6 days after treatment, samples were checked for mortality. The following compounds gave at least 80% mortality of Myzus persicae: […]

Tetranychus urticae = Tetranychus urticae (two-spotted spider mite) bean leaf disc test; details: foliar, 192 h
Procedure: Tetranychus urticae (Two-Spotted Spider Mite):
as §1, with “Bean” for “Sunflower”, “discs” for “discs were placed”, “were” for “and”, “mite” for “thrips”, “on mixed population (mobile stages) 8” for “6”

Diabrotica Balteata = assay: Diabrotica balteata (corn root worm) maize sprout test; details: 96 h, read-out: effect in at least one of the two categories (mortality or growth inhibition)
How it was run: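 Maize sprouts on agar were sprayed with aqueous test solutions made from 10′000 ppm DMSO stocks, dried, then infested with 6 to 10 L2 larvae per well. Mortality and growth inhibition versus untreated samples were assessed 4 days after infestation; application rate 200 ppm.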

Plutella xylostella = Plutella xylostella (diamond back moth) artificial diet test; details: 120 h, read-out: effect in at least one of the two categories (mortality or growth inhibition)
How it was run: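 Artificial diet treated with aqueous compound solutions made from DMSO stocks, dried, then infested with L2 larvae (10 to 15 per well). Mortality and growth inhibition scored versus untreated controls 5 days after infestation. Application rate 200 ppm.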

CCC1(COC2=NOC(NC(=O)c3ccc(C4=NO[C@@](c5cc(Cl)c(Cl)c(Cl)c5)(C(F)(F)F)C4)cc3C)C2)COC1 (stereo partly drawn) [Compound A122, N-[3-[(3-ethyloxetan-3-yl)methoxy]-4,5-dihydroisoxazol-5-yl]-2-methyl-4-[(5S)-5-(3,4,5-trichlorophenyl)-5-(trifluoromethyl)-4H-isoxazol-3-yl]benzamide]
≥ 80%: mortality at 200 ppm (Thrips tabaci) | percent control (mortality, anti-feedant effect or growth inhibition) at 200 ppm (Spodoptera littoralis) | mortality at 200 ppm (Myzus persicae) | mortality at 200 ppm (Tetranychus urticae) | percent effect (mortality or growth inhibition) at 200 ppm (Diabrotica Balteata) | percent effect (mortality or growth inhibition) at 200 ppm (Plutella xylostella)

COC1=NOC(NC(=O)c2ccc(C3=NOC(c4cc(Cl)cc(Cl)c4)(C(F)(F)F)C3)cc2C)C1 (stereo not drawn) [Compound A126]
≥ 80%: mortality at 200 ppm (Thrips tabaci) | percent control (mortality, anti-feedant effect or growth inhibition) at 200 ppm (Spodoptera littoralis) | mortality at 200 ppm (Myzus persicae) | mortality at 200 ppm (Tetranychus urticae) | percent effect (mortality or growth inhibition) at 200 ppm (Diabrotica Balteata) | percent effect (mortality or growth inhibition) at 200 ppm (Plutella xylostella)

COC1=NOC(NC(=O)c2ccc(C3=NO[C@@](c4cc(Cl)cc(Cl)c4)(C(F)(F)F)C3)cc2C)C1 (stereo partly drawn) [Compound A054]
≥ 80%: mortality at 200 ppm (Thrips tabaci) | percent control (mortality, anti-feedant effect or growth inhibition) at 200 ppm (Spodoptera littoralis) | mortality at 200 ppm (Myzus persicae) | mortality at 200 ppm (Tetranychus urticae) | percent effect (mortality or growth inhibition) at 200 ppm (Diabrotica Balteata) | percent effect (mortality or growth inhibition) at 200 ppm (Plutella xylostella)
